Results as given in paper PMC10714400, “Antimicrobial Peptide–Peptoid Hybrids with and without Membrane Disruption” (ACS Infectious Diseases, 2023).
Where two headings read alike, the source gives them in different places.

Columns and labels:
P. aeruginosa PA14 = test system: P. aeruginosa PA14
Method in brief: (§1)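 MICs were determined by broth microdilution in MH medium, with approximately 5 × 10^5 CFU added per well and plates held at 37 °C for about 18 h without shaking.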

S. aureus Newman = test system: S. aureus Newman
Method in brief: as §1

B. cenocepacia = test system: B. cenocepacia
Method in brief: as §1

S. maltophilia = test system: S. maltophilia
Method in brief: as §1

S. epidermis = test system: S. epidermis
Method in brief: as §1

[1] = test system: human red blood cells (hRBC); test: Minimum hemolytic concentration (MHC); format: cell-based; details: CSV
From the text: We also measured minimal hemolysis concentrations (MHC) on human red blood cells by serial 2-fold dilution as an indication of toxicity against eukaryotic cells (Table 1).

PA14 4.18 (pmrB) = test system: PA14 4.18 (pmrB)
Method in brief: as §1

K. pneumoniae OXA-48 = test system: K. pneumoniae OXA-48
Method in brief: as §1

[2] = test system: ZEM9A (clinical MDR P. aeruginosa isolate)
Method in brief: as §1

E. coli W3110 = test system: E. coli W3110
Method in brief: as §1

S. aureus COL (MRSA) = test system: S. aureus COL (MRSA)
Method in brief: as §1

[3] = test system: ZEM-1A (clinical MDR P. aeruginosa isolate)
Method in brief: as §1

E. cloacae = test system: E. cloacae
Method in brief: as §1

PA14 2P4 (pmrB) = test system: PA14 2P4 (pmrB)
Method in brief: as §1

PA14 4.13 (phoQ) = test system: PA14 4.13 (phoQ)
Method in brief: as §1

HEK293 cells = test: Cell viability assay by Alamar blue; details: read-out: Toxicity on HEK293 cells; CSV
Experimental: The data are represented as the mean value ± SD, n = 3. […] (c) Vesicle leakage assay for a selection of compounds. Lipid vesicles made of EYPG or EYPC were suspended in a buffer (10 mM TRIS, 107 mM NaCl, pH 7.4). After 45 s, the indicated compound was added to reach the desired concentration. After 240 s, 30 μL of 1.2% TritonX-100 was added for full fluorescein release. […] See Supporting Information for the full curves, all of the data, and procedures.
HEK293 cells were cultured and maintained in DMEM high glucose (Dulbecco’s modified Eagle medium, Sigma Aldrich) medium supplemented with 10% FBS (Sigma Aldrich) and 1% penicillin/streptomycin. A549 cells were cultured and maintained in RPMI-1640 medium (Sigma Aldrich), supplemented with 10% FBS (Sigma Aldrich) and 1% penicillin/streptomycin. The cells were handled and subcultured according to the manufacturer instructions. Cells were incubated in a humidified incubator at 37 °C in the presence of 5% CO2.
Assays on HEK293, A549 cells were performed as described earlier.[74] […]

With “H-KKLLKLLKLLL-NH2 [ln65, reference compound]” the “MIC P. aeruginosa PA14, […] MH at pH 8.5” value (P. aeruginosa PA14; CSV, […] MH at pH 8.5) was 2 ug/mL, the “MIC P. aeruginosa PA14, full MH at pH 7.4” value (P. aeruginosa PA14; CSV, full MH at pH 7.4) was 3 ug/mL and the “MIC P. aeruginosa PA14” value (P. aeruginosa PA14; MH pH 7.4, 16–20 h at 37 °C) was 2 to 4 µg/mL. The “MIC P. aeruginosa PA14” value (P. aeruginosa PA14; Table S3, […] MH at pH 8.5, 16-20 hours at 37 °C) was 2 µg/mL, the “MIC S. aureus Newman, […] MH at pH 8.5” value (S. aureus Newman; CSV, […] MH at pH 8.5) was 2 ug/mL and the “MIC S. aureus Newman, full MH at pH 7.4” value (S. aureus Newman; CSV, full MH at pH 7.4) was 2 ug/mL. The “MIC S. aureus Newman” value (S. aureus Newman; MH pH 7.4, 16–20 h at 37 °C) was 2 µg/mL, the “MIC S. aureus Newman” value (S. aureus Newman; Table S3, […] MH at pH 8.5) was 2 µg/mL and the “MIC B. cenocepacia, full MH at pH 7.4” value (B. cenocepacia; CSV, full MH at pH 7.4) was greater than 32 ug/mL. The “MIC B. cenocepacia” value (B. cenocepacia; MH pH 7.4, 16–20 h at 37 °C) was greater than 32 µg/mL, the “MIC S. maltophilia, […] MH at pH 8.5” value (S. maltophilia; CSV, […] MH at pH 8.5) was 4 ug/mL and the “MIC S. maltophilia, full MH at pH 7.4” value (S. maltophilia; CSV, full MH at pH 7.4) was 2 ug/mL. For the same substance, the “MIC S. maltophilia” value (S. maltophilia; MH pH 7.4, 16–20 h at 37 °C) was 2 µg/mL, the “MIC S. maltophilia” value (S. maltophilia; Table S3, […] MH at pH 8.5) was 4 µg/mL and the “MIC S. epidermis, […] MH at pH 8.5” value (S. epidermis; CSV, […] MH at pH 8.5) was 1 ug/mL. The “MIC S. epidermis, full MH at pH 7.4” value (S. epidermis; CSV, full MH at pH 7.4) was 2 ug/mL, the “MIC S. epidermis” value (S. epidermis; MH pH 7.4, 16–20 h at 37 °C) was 2 µg/mL and the “MIC S. epidermis” value (S. epidermis; Table S3, […] MH at pH 8.5) was 1 µg/mL. The MHC [1] was 125 µg/mL, the “MIC P. aeruginosa PA14 4.18, […] MH at pH 8.5” value (PA14 4.18 (pmrB); CSV, […] MH at pH 8.5) was 3 ug/mL and the “MIC P. aeruginosa PA14 4.18, full MH at pH 7.4” value (PA14 4.18 (pmrB); CSV, full MH at pH 7.4) was 32 ug/mL. The “MIC PA14 4.18 (pmrB)” value (PA14 4.18 (pmrB); MH pH 7.4, 16–20 h at 37 °C) was 32 µg/mL, the “MIC P. aeruginosa PA14 4.18” value (PA14 4.18 (pmrB); Table S3, […] MH at pH 8.5) was 2 to 4 µg/mL and the “MIC K. pneumoniae OXA-48, […] MH at pH 8.5” value (K. pneumoniae OXA-48; CSV, […] MH at pH 8.5) was 4 ug/mL. The “MIC K. pneumoniae OXA-48, full MH at pH 7.4” value (K. pneumoniae OXA-48; CSV, full MH at pH 7.4) was 2 ug/mL, the “MIC K. pneumoniae OXA-48” value (K. pneumoniae OXA-48; MH pH 7.4, 16–20 h at 37 °C) was 2 µg/mL and the “MIC K. pneumoniae OXA-48” value (K. pneumoniae OXA-48; Table S3, […] MH at pH 8.5) was 4 µg/mL. The “MIC P. aeruginosa ZEM9A, […] MH at pH 8.5” value ([2]; CSV, […] MH at pH 8.5) was 4 ug/mL, the “MIC P. aeruginosa ZEM9A, full MH at pH 7.4” value ([2]; CSV, full MH at pH 7.4) was 4 ug/mL and the “MIC P. aeruginosa ZEM9A” value ([2]; Table S3, […] MH at pH 8.5) was 4 µg/mL. For the same substance, the “MIC E. coli W3110, […] MH at pH 7.4” value (E. coli W3110; CSV, […] MH at pH 7.4) was 2 ug/mL, the “MIC E. coli W3110, […] MH at pH 8.5” value (E. coli W3110; CSV, […] MH at pH 8.5) was 2 ug/mL and the “MIC E. coli W3110, full MH at pH 7.4” value (E. coli W3110; CSV, full MH at pH 7.4) was 4 ug/mL. For the same substance, the “MIC E. coli W3110 […] 7.4” value (E. coli W3110; Table S2, […] MH, pH 7.4) was 2 µg/mL, the “MIC E. coli W3110 […] 8.5” value (E. coli W3110; Table S2, […] MH, pH 8.5) was 2 µg/mL and the “MIC E. coli W3110 Full MH 7.4” value (E. coli W3110; Table S2, full MH, pH 7.4) was 4 µg/mL. For the same substance, the “MIC E. coli W3110 Full MH 8.5” value (E. coli W3110; Table S2, full MH, pH 8.5) was 8 µg/mL, the “MIC S. aureus COL (MRSA), […] MH at pH 7.4” value (S. aureus COL (MRSA); CSV, […] MH at pH 7.4) was 2 ug/mL and the “MIC S. aureus COL (MRSA), […] MH at pH 8.5” value (S. aureus COL (MRSA); CSV, […] MH at pH 8.5) was 2 ug/mL. For the same substance, the “MIC S. aureus COL (MRSA), full MH at pH 7.4” value (S. aureus COL (MRSA); CSV, full MH at pH 7.4) was 4 ug/mL, the “MIC S. aureus COL (MRSA), full MH at pH 8.5” value (S. aureus COL (MRSA); CSV, full MH at pH 8.5) was 8 ug/mL and the “MIC S. aureus COL (MRSA) […] 7.4” value (S. aureus COL (MRSA); Table S2, […] MH, pH 7.4) was 2 µg/mL. For the same substance, the “MIC S. aureus COL (MRSA) […] 8.5” value (S. aureus COL (MRSA); Table S2, […] MH, pH 8.5) was 2 µg/mL, the “MIC S. aureus COL (MRSA) Full MH 7.4” value (S. aureus COL (MRSA); Table S2, full MH, pH 7.4) was 4 µg/mL and the “MIC S. aureus COL (MRSA) Full MH 8.5” value (S. aureus COL (MRSA); Table S2, full MH, pH 8.5) was 8 µg/mL. The “MIC S. aureus COL (MRSA) […]” value (S. aureus COL (MRSA); diluted MH ([…] MH, pH 8.5) per Table 1 footnote b, 16–20 h at 37 °C) was 2 µg/mL, the “MIC S. aureus COL (MRSA) Full” value (S. aureus COL (MRSA); full MH, pH 7.4, 16–20 h at 37 °C) was 4 µg/mL and the “MIC P. aeruginosa ZEM-1A, […] MH at pH 8.5” value ([3]; CSV, […] MH at pH 8.5) was 4 ug/mL. For the same substance, the “MIC P. aeruginosa ZEM-1A, full MH at pH 7.4” value ([3]; CSV, full MH at pH 7.4) was 2 ug/mL, the “MIC ZEM-1A” value ([3]; MH pH 7.4, 16–20 h at 37 °C) was 2 µg/mL and the “MIC P. aeruginosa ZEM-1A” value ([3]; Table S3, […] MH at pH 8.5) was 4 µg/mL. For the same substance, the “MIC E. cloacae, […] MH at pH 8.5” value (E. cloacae; CSV, […] MH at pH 8.5) was 4 ug/mL, the “MIC E. cloacae, full MH at pH 7.4” value (E. cloacae; CSV, full MH at pH 7.4) was 2 ug/mL and the “MIC E. cloacae” value (E. cloacae; MH pH 7.4, 16–20 h at 37 °C) was 2 µg/mL. For the same substance, the “MIC E. cloacae” value (E. cloacae; Table S3, […] MH at pH 8.5) was 4 µg/mL, the “MIC P. aeruginosa PA14 2P4, […] MH at pH 8.5” value (PA14 2P4 (pmrB); CSV, […] MH at pH 8.5) was 3 ug/mL and the “MIC P. aeruginosa PA14 2P4, full MH at pH 7.4” value (PA14 2P4 (pmrB); CSV, full MH at pH 7.4) was 32 ug/mL. The “MIC PA14 2P4 (pmrB)” value (PA14 2P4 (pmrB); MH pH 7.4, 16–20 h at 37 °C) was 32 µg/mL, the “MIC P. aeruginosa PA14 2P4” value (PA14 2P4 (pmrB); Table S3, […] MH at pH 8.5) was 2 to 4 µg/mL and the “MIC P. aeruginosa PA14 4.13, […] MH at pH 8.5” value (PA14 4.13 (phoQ); CSV, […] MH at pH 8.5) was 2 ug/mL. For the same substance, the “MIC P. aeruginosa PA14 4.13, full MH at pH 7.4” value (PA14 4.13 (phoQ); CSV, full MH at pH 7.4) was 4 ug/mL, the “MIC PA14 4.13 (phoQ)” value (PA14 4.13 (phoQ); MH pH 7.4, 16–20 h at 37 °C) was 4 µg/mL and the “MIC P. aeruginosa PA14 4.13” value (PA14 4.13 (phoQ); Table S3, […] MH at pH 8.5) was 2 µg/mL. It also gave an IC50 (HEK293 cells) of 27 ± 6 µM.
